Reference: patent US20110190365A1, “Insecticidal 4-phenyl-1H-pyrazoles” (Bayer Crop Science AG, priority 2008, published 2011)

Assay: log P by HPLC on a reversed-phase column (C18), EEC Directive 79/831 Annex V.A8
Type: physicochemical
Conditions: HCOOH
Protocol: The stated log P values were determined in accordance with EEC Directive 79/831 Annex V.A8 by HPLC (High Performance Liquid Chromatography) using a reversed-phase column (C18).

SMILES	log P (HCOOH)
CNC(=O)c1ccc(-n2nc(C(F)(F)F)c(-c3ccc(Cl)c(Cl)c3)c2N)cc1 [I-A-Q2-194]	I-A-Q2-194: log P (HCOOH): 3.37
CNC(=O)c1ccc(-n2nc(C(F)(F)F)c(-c3ccc(Cl)cc3)c2N)cc1 [I-A-Q2-195]	I-A-Q2-195: log P (HCOOH): 2.96
CC(NC(=O)c1ccc(-n2nc(C(F)(F)F)c(-c3cc(F)c(F)c(F)c3)c2N)cc1)c1ccccn1 (stereo not drawn) [I-A-Q2-196]	I-A-Q2-196: log P (HCOOH): 2.84
CC(=O)Nc1c(-c2cc(Cl)cc(Cl)c2)c(C(F)(F)F)nn1-c1ccc(C(=O)NCc2ccccn2)c(C)c1 [I-A-Q2-197]	I-A-Q2-197: log P (HCOOH): 2.76
Cc1cc(-n2nc(C(F)(F)F)c(-c3cc(Cl)cc(Cl)c3)c2N)ccc1C(=O)NC(CC(C)C)C(F)(F)F (stereo not drawn) [I-A-Q2-198]	I-A-Q2-198: log P (HCOOH): 5.40
Cc1cc(-n2nc(C(F)(F)F)c(-c3cc(Cl)cc(Cl)c3)c2N)ccc1C(=O)N(Cc1ccccn1)Cc1ccccn1 [I-A-Q2-199]	I-A-Q2-199: log P (HCOOH): 3.48
CCC(NC(=O)c1ccc(-n2nc(C(F)(F)F)c(-c3cc(Cl)cc(Cl)c3)c2N)cc1C)C(F)(F)F (stereo not drawn) [I-A-Q2-200]	I-A-Q2-200: log P (HCOOH): 4.82
CCCC(NC(=O)c1ccc(-n2nc(C(F)(F)F)c(-c3cc(Cl)cc(Cl)c3)c2N)cc1C)C(F)(F)F (stereo not drawn) [I-A-Q2-201]	I-A-Q2-201: log P (HCOOH): 5.11
CCCNC(=O)c1ccc(-n2nc(C(F)(F)F)c(-c3cc(Cl)cc(Cl)c3)c2N)cc1C [I-A-Q2-202]	I-A-Q2-202: log P (HCOOH): 4.22
Cc1cc(-n2nc(C(F)(F)F)c(-c3cc(Cl)cc(Cl)c3)c2N)ccc1C(=O)NC1CCN(C(=O)C2CC2)CC1 [I-A-Q2-203]	I-A-Q2-203: log P (HCOOH): 3.77
CCOC(=O)N1CCC(NC(=O)c2ccc(-n3nc(C(F)(F)F)c(-c4cc(Cl)cc(Cl)c4)c3N)cc2C)CC1 [I-A-Q2-204]	I-A-Q2-204: log P (HCOOH): 4.22
CSCCNC(=O)c1ccc(-n2nc(C(F)(F)F)c(-c3cc(Cl)cc(Cl)c3)c2N)cc1C [I-A-Q2-205]	I-A-Q2-205: log P (HCOOH): 4.17
Cc1cc(-n2nc(C(F)(F)F)c(-c3cc(Cl)cc(Cl)c3)c2N)ccc1C(=O)NCc1cc(-c2ccccc2)ccn1 [I-A-Q2-206]	I-A-Q2-206: log P (HCOOH): 4.29
Cc1cc(-n2nc(C(F)(F)F)c(-c3cc(Cl)cc(Cl)c3)c2N)ccc1C(=O)NCc1cc(C(F)(F)F)c(Cl)cn1 [I-A-Q2-207]	I-A-Q2-207: log P (HCOOH): 4.83
Cc1cc(-n2nc(C(F)(F)F)c(-c3cc(Cl)cc(Cl)c3)c2N)ccc1C(=O)N(C)C(C)c1cccnc1 (stereo not drawn) [I-A-Q2-208]	I-A-Q2-208: log P (HCOOH): 3.19
Cc1cc(-n2nc(C(F)(F)F)c(-c3cc(Cl)cc(Cl)c3)c2N)ccc1C(=O)N(C)Cc1cccnc1 [I-A-Q2-209]	I-A-Q2-209: log P (HCOOH): 3.02
Cc1cc(-n2nc(C(F)(F)F)c(-c3cc(Cl)cc(Cl)c3)c2N)ccc1C(=O)N(C)C(C)c1ccccn1 (stereo not drawn) [I-A-Q2-210]	I-A-Q2-210: log P (HCOOH): 4.28
Cc1cc(-n2nc(C(F)(F)F)c(-c3cc(Cl)cc(Cl)c3)c2N)ccc1C(=O)N(C)C(C)c1ccncc1 (stereo not drawn) [I-A-Q2-211]	I-A-Q2-211: log P (HCOOH): 2.89
Cc1cc(-n2nc(C(F)(F)F)c(-c3cc(Cl)cc(Cl)c3)c2N)ccc1C(=O)NCc1ccncc1 [I-A-Q2-212]	I-A-Q2-212: log P (HCOOH): 2.27
Cc1cc(-n2nc(C(F)(F)F)c(-c3cc(Cl)cc(Cl)c3)c2N)ccc1C(=O)NC(C)c1ccc(Cl)cc1 (stereo not drawn) [I-A-Q2-213]	I-A-Q2-213: log P (HCOOH): 4.89
Cc1cc(-n2nc(C(F)(F)F)c(-c3cc(Cl)cc(Cl)c3)c2N)ccc1C(=O)NCc1cccc(F)c1 [I-A-Q2-214]	I-A-Q2-214: log P (HCOOH): 4.45
Cc1cc(-n2nc(C(F)(F)F)c(-c3cc(Cl)cc(Cl)c3)c2N)ccc1C(=O)NCc1cccc(Cl)c1 [I-A-Q2-215]	I-A-Q2-215: log P (HCOOH): 4.76
Cc1cc(-n2nc(C(F)(F)F)c(-c3cc(Cl)cc(Cl)c3)c2N)ccc1C(=O)NCc1cccnc1 [I-A-Q2-216]	I-A-Q2-216: log P (HCOOH): 2.57
Cc1cc(-n2nc(C(F)(F)F)c(-c3cc(Cl)cc(Cl)c3)c2N)ccc1C(=O)NC(CC(F)(F)F)C(F)(F)F (stereo not drawn) [I-A-Q2-217]	I-A-Q2-217: log P (HCOOH): 4.70
Cc1cc(-n2nc(C(F)(F)F)c(-c3cc(Cl)cc(Cl)c3)c2N)ccc1C(=O)NC1CCS(=O)(=O)C1 (stereo not drawn) [I-A-Q2-218]	I-A-Q2-218: log P (HCOOH): 3.33
Cc1cc(-n2nc(C(F)(F)F)c(-c3cc(Cl)cc(Cl)c3)c2N)ccc1C(=O)NCc1ccc(Cl)nc1 [I-A-Q2-219]	I-A-Q2-219: log P (HCOOH): 4.05
Cc1cc(-n2nc(C(F)(F)F)c(-c3cc(Cl)cc(Cl)c3)c2N)ccc1C(=O)NCC1CC1 [I-A-Q2-220]	I-A-Q2-220: log P (HCOOH): 4.11

SMILES	log P (HCOOH)
Cc1cc(-n2nc(C(F)(F)F)c(-c3cc(Cl)cc(Cl)c3)c2N)ccc1C(=O)NC(C)(C)C [I-A-Q2-221]	I-A-Q2-221: log P (HCOOH): 4.51
Cc1cc(-n2nc(C(F)(F)F)c(-c3cc(Cl)cc(Cl)c3)c2N)ccc1C(=O)NC1CCCCC1 [I-A-Q2-222]	I-A-Q2-222: log P (HCOOH): 4.76
Cc1cc(-n2nc(C(F)(F)F)c(-c3cc(Cl)cc(Cl)c3)c2N)ccc1C(=O)NC1CCCC1 [I-A-Q2-223]	I-A-Q2-223: log P (HCOOH): 4.45
COC(CNC(=O)c1ccc(-n2nc(C(F)(F)F)c(-c3cc(Cl)cc(Cl)c3)c2N)cc1C)OC [I-A-Q2-224]	I-A-Q2-224: log P (HCOOH): 3.78
CCC(CC)NC(=O)c1ccc(-n2nc(C(F)(F)F)c(-c3cc(Cl)cc(Cl)c3)c2N)cc1C [I-A-Q2-225]	I-A-Q2-225: log P (HCOOH): 4.57
Cc1cc(-n2nc(C(F)(F)F)c(-c3cc(Cl)cc(Cl)c3)c2N)ccc1C(=O)NCCc1ccccn1 [I-A-Q2-226]	I-A-Q2-226: log P (HCOOH): 2.50
Cc1cc(-n2nc(C(F)(F)F)c(-c3cc(Cl)cc(Cl)c3)c2N)ccc1C(=O)NCC(C)C [I-A-Q2-227]	I-A-Q2-227: log P (HCOOH): 4.40
Cc1cc(-n2nc(C(F)(F)F)c(-c3cc(Cl)cc(Cl)c3)c2N)ccc1C(=O)NC1CC1 [I-A-Q2-228]	I-A-Q2-228: log P (HCOOH): 3.78
Cc1cc(-n2nc(C(F)(F)F)c(-c3cc(Cl)cc(Cl)c3)c2N)ccc1C(=O)NC(C)C [I-A-Q2-229]	I-A-Q2-229: log P (HCOOH): 4.05
Cc1cc(-n2nc(C(F)(F)F)c(-c3cc(Cl)cc(Cl)c3)c2N)ccc1C(=O)NCc1ncc(C(F)(F)F)cc1Cl [I-A-Q2-230]	I-A-Q2-230: log P (HCOOH): 4.89
Cc1cc(-n2nc(C(F)(F)F)c(-c3cc(Cl)cc(Cl)c3)c2N)ccc1C(=O)NC(C)c1cccnc1 (stereo not drawn) [I-A-Q2-231]	I-A-Q2-231: log P (HCOOH): 2.69
Cc1cc(-n2nc(C(F)(F)F)c(-c3cc(Cl)cc(Cl)c3)c2N)ccc1C(=O)NCCc1ncc(C(F)(F)F)cc1Cl [I-A-Q2-232]	I-A-Q2-232: log P (HCOOH): 4.95
Cc1cc(-n2nc(C(F)(F)F)c(-c3cc(Cl)cc(Cl)c3)c2N)ccc1C(=O)NCc1ccc(C(F)(F)F)cn1 [I-A-Q2-233]	I-A-Q2-233: log P (HCOOH): 4.40
Cc1cc(-n2nc(C(F)(F)F)c(-c3cc(Cl)cc(Cl)c3)c2N)ccc1C(=O)NC(C)c1ccncc1 (stereo not drawn) [I-A-Q2-234]	I-A-Q2-234: log P (HCOOH): 2.38
Cc1cc(-n2nc(C(F)(F)F)c(-c3cc(Cl)cc(Cl)c3)c2N)ccc1C(=O)NCc1ncc(Cl)cc1C(F)(F)F [I-A-Q2-235]	I-A-Q2-235: log P (HCOOH): 4.95
Cc1cc(-n2nc(C(F)(F)F)c(-c3cc(Cl)cc(Cl)c3)c2N)ccc1C(=O)N(C)CC(F)(F)F [I-A-Q2-236]	I-A-Q2-236: log P (HCOOH): 4.51
CCCCCNC(=O)c1ccc(-n2nc(C(F)(F)F)c(-c3cc(Cl)cc(Cl)c3)c2N)cc1C [I-A-Q2-237]	I-A-Q2-237: log P (HCOOH): 4.76
C#CCNC(=O)c1ccc(-n2nc(C(F)(F)F)c(-c3cc(Cl)cc(Cl)c3)c2N)cc1C [I-A-Q2-238]	I-A-Q2-238: log P (HCOOH): 3.78
Cc1cc(-n2nc(C(F)(F)F)c(-c3cc(Cl)cc(Cl)c3)c2N)ccc1C(=O)NC1CCC1 [I-A-Q2-239]	I-A-Q2-239: log P (HCOOH): 4.17
Cc1cc(-n2nc(C(F)(F)F)c(-c3cc(Cl)cc(Cl)c3)c2N)ccc1C(=O)NC(C)c1ccc(C(F)(F)F)cn1 (stereo not drawn) [I-A-Q2-240]	I-A-Q2-240: log P (HCOOH): 4.70
Cc1cc(-n2nc(C(F)(F)F)c(-c3cc(Cl)cc(Cl)c3)c2N)ccc1C(=O)NC(c1ccccc1)C(F)(F)F (stereo not drawn) [I-A-Q2-241]	I-A-Q2-241: log P (HCOOH): 4.89
Cc1cc(-n2nc(C(F)(F)F)c(-c3cc(Cl)cc(Cl)c3)c2N)ccc1C(=O)NC(c1ccc(C(F)(F)F)cc1)C(F)(F)F (stereo not drawn) [I-A-Q2-242]	I-A-Q2-242: log P (HCOOH): 5.29
Cc1cc(-n2nc(C(F)(F)F)c(-c3cc(Cl)cc(Cl)c3)c2N)ccc1C(=O)NC(C)Cn1cccn1 (stereo not drawn) [I-A-Q2-243]	I-A-Q2-243: log P (HCOOH): 3.78
Cc1cc(-n2nc(C(F)(F)F)c(-c3cc(Cl)cc(Cl)c3)c2N)ccc1C(=O)NC1(c2ccccn2)CC1 [I-A-Q2-244]	I-A-Q2-244: log P (HCOOH): 3.68
Cc1cc(C)nc(CNC(=O)c2ccc(-n3nc(C(F)(F)F)c(-c4cc(Cl)cc(Cl)c4)c3N)cc2C)n1 [I-A-Q2-245]	I-A-Q2-245: log P (HCOOH): 3.89
Cc1cc(-n2nc(C(F)(F)F)c(-c3cc(Cl)cc(Cl)c3)c2N)ccc1C(=O)NC(c1ccc(N(C)C)cc1)C(F)(F)F (stereo not drawn) [I-A-Q2-246]	I-A-Q2-246: log P (HCOOH): 5.02
Cc1cc(-n2nc(C(F)(F)F)c(-c3cc(Cl)cc(Cl)c3)c2N)ccc1C(=O)NC(C)c1ccc(F)cc1 (stereo not drawn) [I-A-Q2-247]	I-A-Q2-247: log P (HCOOH): 4.57
